The results in this text go back to patent US20190022220A1, “LIGHT-ACTIVATED ANCHORING OF THERAPEUTIC FACTORS TO TISSUES” (The Board of Trustees of the Leland Stanford Junior …, priority 2016, published 2019).

Data set [1] concerns human mesenchymal stem cells (hMSCs). The data set is described as follows: Live-dead assay of hMSCs encapsulated in collagen gels formed with riboflavin and blue light. Format: cell-based. Conditions: 72 hours; riboflavin 0.25 mM or less; 20 sec blue light at 100 mW/cm^2; cells in collagen gel. From the text:
A major clinical challenge is the delivery of cells, particularly stem cells, to an diseased or damaged area of the body. Currently, the stem cells are typically injected in suspension to an area without a specific or effective means to have them target and adhere to a particular location. Providing a immobilizing matrix and microenvironment in which to settle and grow while remaining immobilized to that are would be an advancement in the art. Cells can be encapsulated within a biomolecular gel according to the present invention. […] Using this method, hMSCs and other cell types can be encapsulated and positioned to a specific location in the body. For instance, a collagen gel encapsulating hMSCs can be formed and adhered in situ using blue light and riboflavin on the surface of a corneal wound, creating a “living reservoir” of therapeutic factors that are secreted by the immobilized hMSCs. The formed gel adheres to the target tissue due to crosslinks formed between the exogenously applied collagen and the collagen on the wound bed or target tissue which is shown by example in FIG. 9D.

Data set [2] can be described thus: EGF release from V-CXL collagen gels (ELISA). It counts as physicochemical. Conditions: 37° C., 2 to 120 hours. The protocol: FIG. 9C summarizes the storage and loss modulus of collagen gels crosslinked using riboflavin and blue light exposure of different time intervals.
Growth factor release. To understand the ability of growth factors to be liberated from crosslinked collagen, human recombinant EGF (Peprotech) was incorporated within collagen gels during gelation. A neutralized 3% collagen solution with 0.25 mM riboflavin was exposed to blue light (˜458 nm) at 60 mW/cm^2 for 20 seconds. The formed gel was then cut into cylindrical discs and placed in a PBS solution with or without 0.1% versus 0.2% collagenase at 37° C. on a shaker. The solution was then sampled at intervals starting at 2 hours to 120 hours. An ELISA kit was then used to evaluate the concentration of released EGF in the solution.

For data set [3], the system named is 2 mm corneal debridement wound. The data set is described as follows: Rodent corneal debridement wound healing and ocular tolerance study. It counts as in vivo. The protocol: FIGS. 13A-13D show results of EGF surface-coupling by V-CXL in a rodent corneal debridement animal model. A 2 mm corneal debridement was performed in three groups of two rodent eyes each (average corneal diameter=3 mm). Shown here are photographs of fluorescein-stained rodent eyes at 24 hours: EGF encapsulated within a collagen gel using riboflavin and blue light exposure for 5 seconds (FIG. 13A), EGF coupling directly to corneal stroma using riboflavin and blue light exposure for 5 seconds (FIG. 13B), topical EGF only (FIG. 13C), and no treatment (FIG. 13D). Slit lamp photos of the wounded and treated eyes are shown on the left, and fluorescein staining of the same eyes are shown on the right.
Mouse corneas were subject to 2 mm diameter circular corneal debridement and then treated with (1) a collagen gel solution containing 0.01 mg/ml of EGF, and 0.1 mg/ml riboflavin and exposed to blue light (˜458 nm) for 5 seconds, (2) an aqueous EGF solution containing 0.01 mg/ml EGF and 0.1 mg/ml riboflavin and exposed to blue light for 5 seconds, (3) topical application of an aqueous solution of EGF alone at a concentration of 0.01 mg/mL, or (4) no treatment. The rodents were then examined at 24 hours and the wound areas examined by fluorescein staining.
In vivo ocular tolerance and wound healing animal study: In an animal study in rodents, V-CXL was used to bind EGF to wounded corneas. Briefly, a 2 mm diameter debridement was performed, and the wound bed was treated topically with 0.025 mM of riboflavin mixed with 0.01 mg/mL of EGF delivered topically to the wound bed and allowed incubate for 10 minutes followed by 5 seconds of exposure to blue light (˜458 nm) at 60 mW/cm^2. The eye was then rinsed with BSS. Controls used were topical EGF alone and no treatment.

For data set [4], the system named is primary rabbit corneal epithelial cells (CECs). The data set is described as follows: Proliferation of corneal epithelial cells on EGF-bound collagen surfaces. It counts as cell-based. To be noted: over 5 days; EGF bound to collagen by V-CXL vs collagen without covalently linked EGF; both concentrations tested. The protocol: Enhanced cell proliferation on growth factor fortified collagen gels. Late-passage primary rabbit corneal epithelial cells (CECs) of the same cell density were grown on surfaces with EGF bound to collagen using V-CXL as well as standard collagen-coated tissue-culture polystyrene without covalently linked EGF.

In the next data set the test system is NGF receptor. The data set is described as follows: Ellipsometry of soluble NGF receptor binding to NGF-coupled collagen surfaces. Conditions: NGF photochemically coupled to collagen compared to physisorbed NGF. From the text:
V-CXL binds growth factors directly to collagen. V-CXL was used to bind EGF and NGF growth factors directly to collagen. Fluorometry (FIG. 3), surface plasmon resonance (FIG. 4), ellipsometry (FIG. 5), and ELISA (FIG. 6) were used to monitor and compare the chemical coupling versus physical adsorption of NGF and EGF to collagen surfaces. In these experiments, collagen was first chemically immobilized to either gold, glass, or polystyrene surfaces (depending on the method being used), followed by V-CXL-mediated coupling of either EGF or NGF (or their fluorescein-isothiocyanate (FITC)-labeled conjugates) to the collagen coating alone or physical adsorption of growth factor to collagen from aqueous solution.
Exposure of NGF to blue light in the presence of riboflavin led to a step-increase in the layer thickness of the collagen-coated gold wafer.

Entries after “also recorded” stand apart in the source; their conditions may differ.

On to `Cc1cc2nc3c(=O)[nH]c(=O)nc-3n(C[C@H](O)[C@H](O)[C@H](O)CO)c2cc1C` [riboflavin], for which the “% living hMSCs (viability)” value in data set [1] is reported as “greater than 90%”.

In the case of epidermal growth factor [EGF], the “EGF release from collagen gel” value in data set [2] (0.1% versus 0.2% collagenase in PBS) is “increases the release in a dose-dependent manner; also recorded: accelerated in a dose-dependent manner”; in data set [2] (PBS alone, 3% collagen, 0.25 mM riboflavin, blue light 60 mW/cm^2 20 seconds) it was “relatively slow release and slow”. Also, the “wound area by fluorescein staining vs topical EGF alone or no treatment” value in data set [3] (24 hours, 0.01 mg/ml EGF, 0.1 mg/ml riboflavin, blue light (~458 nm) 5 seconds) is “smaller; also recorded: greater wound area reduction”. Besides, the “reduction in wound area by fluorescein staining compared with controls” value in data set [3] (24 hours, EGF-coupled corneas (0.025 mM riboflavin, 0.01 mg/mL EGF, 5 s blue light) vs topical EGF alone and no treatment, n=2) was “greater reduction in wound area”. The “wound area as % of the wound area in topical EGF-treated eyes” value in data set [3] (24 hours, V-CXL: 0.025 mM riboflavin + 0.01 mg/mL EGF, 5 seconds blue light (~458 nm) at 60 mW/cm^2, n=2, ImageJ analysis) was “approximately 50%”. The “wound area as % of the wound area of untreated eyes” value in data set [3] (24 hours, V-CXL: 0.025 mM riboflavin + 0.01 mg/mL EGF, 5 seconds blue light at 60 mW/cm^2, n=2, ImageJ analysis) is recorded as “approximately 35%”. Besides, the “signs of ocular intolerance (conjunctival injection, swelling, discharge, corneal toxicity)” value in data set [3] (eyes treated with EGF and riboflavin in the V-CXL reaction) is on record as “No signs of ocular intolerance”. The “proliferation of senescent primary CECs” value in data set [4] is reported as “greater proliferation”.

On to nerve growth factor [NGF], for which the “NGF receptor binding (change in relative layer thickness)” value with NGF receptor is listed as “higher amount of NGF receptor binding; also recorded: greater NGF binding”.
